Blank lines part the entries; values can stand above or below the compound they belong to.
Key:
[1] = test system: HepG2 and primary rat hepatocytes; test: Release of Annexin V-positive MPs from hepatocytes (flow cytometry); format: cell-based, human (HepG2); rat (primary hepatocytes); settings: palmitic acid-treated hepatocytes co-incubated with caspase 3 inhibitor (FIGS. 2E, 2G)
Method: For microparticles (MPs) isolation, HepG2 and primary rat hepatocytes were seeded onto a 100 mm dish and cultured until reaching 80-85% of confluence. Cells were incubated with 0.25 mM of palmitic, stearic, oleic or linoleic acid (FFA) in serum-free DMEM, supplemented with 1.1% penicillin and streptomycin, 1% endotoxin-free bovine serum albumin (BSA), for up to 24 h. […] The uptake of FFAs from hepatocytes was evaluated by Oil red-O staining kit (Cayman, Ann Arbor, Mich., USA) according to the manufacturer instruction. To determine the effect of caspase 3 activity, hepatocytes were treated with a selective caspase 3 inhibitor, Ac-DEVD-CHO (BD Pharmingen, Franklin Lakes, N.J., US). Control cells were incubated with the same serum-free media in association to the vehicle that was used to dissolve the FFAs. After 24 h, the supernatant were collected and centrifuged twice at 3,000 rpm for 15 minutes to remove cell debris and aggregates. The supernatant was then transferred to new tubes and ultracentrifuged at 100,000 g for 90 minutes at 10° C., to avoid contamination of exosomes.
The supernatant was collected in new tubes and used as a MP-free control and the pelleted MPs were resuspended in 200 μl of PBS for flow cytometry or in 500 μl of EGM-2 growth medium for subsequent in vitro studies. The concentration of microparticles μg/mL was determined by the BCA protein assay and different concentrations of MPs (50, 125, 250 and 500 μg/mL) were used to perform the dose-dependent angiogenesis in vitro assays. For selected purposes, in particular for the characterization analyses, crude MPs were purified by 10-70% sucrose gradient ultracentrifugation at 150,000 g for 18 h at 10° C., collected as fractions in new tubes. […]
Flow cytometry analyses for microparticles (or endothelial cells) detection were performed by using BD LSRII Flow Cytometer System (BD Biosciences, San Jose, Calif., USA) and the data were analyzed using FlowJo software (TreeStar Inc., Ashland, Oreg., USA). […]

[2] = test system: HUVECs; test: HUVEC tube formation assay; format: cell-based, human
Method: HUVECs (0.5-1×10^5 cells per well) were seeded onto a coated 24-well plate culture dishes with 200 μl/cm2 (thick gel method) of Matrigel (BD, Franklin Lakes, N.J., USA) and cultured in EBM-2 basal medium supplemented with 1.1% of streptomycin and penicillin in the presence of 100 ng/mL of VEGF (Peprotech, Rocky Hill, N.J., USA), hepatocytes-derived MPs, MP-free supernatant or conditioned supernatant collected after 24 hours of treatment with FFAs. In selective studies, a specific inhibitor for RhoA-ROCK (Y27632, 10 μM) was used in association with MPs in the treatment of endothelial cells. For the ex vivo studies, PFP isolated from different groups of mice (chow, HF/HCarb, MCD fed mice and mice injected with control RNA, VNN1 siRNA or PBS as vehicle) were ultracentrifuged at 100,000 g for 1 h at 10° C. to pellet the blood MPs. HUVECs were treated with MPs (or blood pure MPs) and incubated for 5 h at 37° C. Tube formation was investigated by using an inverted microscope at 4× magnification and images were captured. Tube formation image analysis was assessed by using Wimtube software (Wimasis, Munich, Germany) and the values referred to total tube length (pixel) were used for statistical and data analysis.

[3] = test system: HUVECs; test: HUVEC migration (Boyden's chamber chemotaxis, wound healing); format: cell-based, human
Method: In vitro migration studies have been performed by using human umbilical cell endothelial cells (HUVECs). Wound healing assay was performed to analyze chemokinesis (non-oriented migration) by using collagen-coated 6-well culture plate, where a silicon elastomer (PDMS) strip was placed vertically to the bottom of every well to create the artificial wound. HUVECs were plated and grown until reaching the complete confluence. HUVECs were treated with EBM-2 supplemented with 100 ng/mL of VEGF (Peprotech, Rocky Hill, N.J., USA), hepatocytes-derived MPs, MP-free supernatant or supernatant collected after 24 hours of treatment with FFAs. The strips were removed carefully and migration of cells was detected by a confocal microscope, capturing one picture per field every 10 minutes for 48 hours. Mitomycin (1 μg/ml) was used to inhibit cell proliferation during wound healing assay. Data were analyzed by using Wimscratch software (Wimasis, Munich, Germany) in order to get the total cell-covered area (pixel). Boyden's chamber assay was performed to analyze chemotaxis (oriented migration) by using cell culture inserts 8 μm pore size (Millipore, Billerica, Mass., USA) and 24-well plate. Each well was filled with 500 μl of serum free EBM-2 media in presence or absence of the following chemoattractants: 100 ng/mL VEGF; hepatocytes-derived MPs; MP-free supernatant or conditioned supernatant. The inserts were placed on top of each well and 150 μl of cell suspension (5×10^4 cells) was added. Plates were incubated overnight at 37° C., and then the filters were removed and stained with Vectashield mounting medium with 4′,6-diamino-2-phenylindole (DAPI) (Vector Labs, Burlingame, Calif., USA).
Migrated cells were detected with a fluorescence microscope and number per field of their nuclei was counted. For the ex vivo studies, PFP isolated from different groups of mice (chow, HF/HCarb, MCD fed mice and mice injected with control siRNA, VNN1 siRNA or PBS as vehicle) were ultracentrifuged at 100,000 g for 1 h at 10° C. to pellet the blood MPs.

[4] = test system: HUVECs; test: Internalization of microparticles into endothelial cells; format: cell-based, human; settings: HUVECs pre-treated with 10 mM MβCD 15 min or 2.5 μg/mL cav-1 nAb 30 min at 37° C., then MPs 6 h
Method: Internalization of hepatocyte-derived MPs into HUVECs and the role of VNN1 and lipid raft were evaluated by flow cytometry, indirect immunofluorescence and electron microscopy. To investigate the MPs internalization into HUVECs, by flow cytometry, MPs were stained with 1 μM of Calcein, AM (MPCalcein) (BD Biosciences), a fluorescent dye with an emission wavelength of 515 nm, for 1 h in the dark at 37° C. MPs were centrifuged twice with PBS for 30 minutes at 35,000 rpm and resuspended in 500 μL of EGM medium. To block MPs internalization, MPsCalcein were incubated with or without 4 μg/mL of rabbit polyclonal anti-VNN1 antibody (S3055; Epitomics, Burlingame, Calif., USA) for 30 minutes at RT. A rabbit anti-GAPDH antibody (Abcam, Cambridge, Mass., USA) was used as a control. […] Cells were trypsinized and FITC positive HUVECs were detected by BD LSRII Flow Cytometer System (BD) and counted. […]
The MPs suspension was incubated in the dark for 4 minutes, and then 2 mL of 1% BSA was added and kept for 1 minute to stop the reaction. […] HUVECs (4×10^3 cell per well) were seeded onto a 24-well plate and depletion of cholesterol was assessed by a treatment with 10 mM of Methyl-β-cyclodextrin (MβCD) in serum-free EBM-2 medium for 15 minutes at 37° C., followed by wash with fresh medium. […]

[5] = HUVECs treated with MPs and Y27632, 10 μM

Compound: Ac-DEVD-CHO [selective caspase 3 inhibitor]
- formation and release of MPs [1]: drastically reduced

Compound: C[C@@H](N)[C@H]1CC[C@H](C(=O)Nc2ccncc2)CC1 [Y-27632]
- tube formation (MP-mediated) [2, 5]: significant decrease
- chemotaxis (MP-mediated) [3, 5]: significant decrease

- tube formation induced by cell-free supernatants of FFA-treated hepatocytes ([2]; supernatants from HepG2/primary rat hepatocytes incubated with FFA up to 24 h, VEGF-A positive control): marked increase
- endothelial cell oriented (chemotaxis) and non-oriented migration induced by cell-free supernatants of FFA-treated hepatocytes ([3]; supernatants from hepatocytes incubated with FFA up to 24 h, VEGF-A positive control): marked increase
Compound: CCCCCCCCCCCCCCCCCC(=O)O [stearic acid]

Compound: Methyl-β-cyclodextrin
- MPs internalization into the endothelial cells [4]: marked reduction
